The results in this text go back to US10947558B2, “Compositions and methods for inducing resistance to soybean cyst nematode via RNAi” (priority 2015, dated 2021).

The assay relates to C. elegans (N2 wild type). In words: RNA interference in C. elegans by soaking L2 worms in HgRPS23 dsRNA (vitality/lethality). It counts as in vivo. The note with it: 10 μM, positive control, after one day of soaking. The method, then:
The effectiveness of HgRPS23 siRNA in silencing the worm's ribosomal protein gene was tested in C. elegans, following the previously published protocols (Alkharouf et al., 2007, Peng et al., 2016) with modifications. A T7 promoter sequence (5′-TAATACGACTCACTATAG-3′; SEQ ID NO: 3) was added to the 5′ ends of both the forward and reverse primer to amplify the 225 bp of HgRPS23 from pRD64 by PCR. The amplified PCR product was used to produce the double stranded (ds) in vitro transcript by the MEGAscript®T7 kit (Ambion/Invitrogen, Calsbad, Calif., USA).
The wt N2 strain of C. elegans was obtained from the CGC (Caenorhabditis Genetics Center) and maintained on NGM (Nematode Growth Medium) plates (60 mm petri dishes) at room temperature. The worms were grown and synchronized using protocols from the WormBase (www.wormbase.org). The L2 worms were soaked in 100 μl M9 buffer (22 mM KH2PO4, 4.7 mM NH4Cl, 43.6 mM Na2HPO4 and 2.1 mM NaCl) containing 50 mM octopamine (Sigma, St. Louis, Mo., USA) to increase pharyngeal pumping and 2 mg/ml HgRPS23 dsRNA. The negative control L2 worms were treated by soaking in M9 buffer containing 50 mM octopamine only. The positive control L2 worms were soaked in M9 buffer containing 50 mM octopamine and 10 μM cycloheximide (Sigma, St. Louis, Mo., USA) as a translation inhibitor. C. elegans worms were treated in the wells of a 96-well plate on a gentle shaker. […]

In the case of `C[C@@H]1C[C@@H]([C@H](O)CC2CC(=O)NC(=O)C2)C(=O)[C@@H](C)C1` [cycloheximide], the “vitality rate of N2 worms” value is “approximately 20%”.
